From patent USRE39420E1, “1,2-Diphenylpyrrole derivatives, their preparation and their therapeutic uses” (Sankyo Company, Limited, priority 1996, dated 2006)
pIC50: −log10 of the molar value.

Key:
[1] = test system: TNFα production in human peripheral monocytes; assay: Inhibitory effect on TNFα production in LPS-stimulated human peripheral monocytes; assay type: cell-based; details: Monocyte, LPS 10 μg/ml, 20 hours
Protocol: (§1) (1) Peripheral blood was collected from healthy human volunteers in the presence of heparin. After mixing it with an equal volume of phosphate-buffered saline (PBS, Nissui Pharmaceutical), the mixture was layered onto Ficoll Paque medium (Pharmacia) at the rate of 2:1 and centrifuged at 520×g at 25° C. for 20 minutes. After centrifugation, the monocyte layer was removed and suspended in RPMI 1640 (Nissui Pharmaceutical) containing 10% fetal calf serum (FCS). The monocytes were washed once with the same medium, placed in a plastic Petri dish, pre-treated with human plasma and incubated for 2 hours in the presence of 5% CO2 to cause them to adhere to the dish. After incubation, the Petri dish was washed twice with PBS to remove the non-adherent cells. Thereafter, PBS containing 5% FCS and 0.2% EDTA was added to the Petri dish and the dish was allowed to stand undisturbed for 15 minutes at 4° C. The monocytes were recovered from the dish by pipetting. The cells were finally suspended in RPMI 1640 at a concentration of 1.25×10^5 cells/ml. (2) Culture of Human Monocytes
(§2) A 40 μl solution of the test compound and 40 μl of lipopolysaccharide (LPS; E. coli, 0.26:B6, Difco), adjusted to a final concentration of 10 μg/ml, were added to 320 μl of cell suspension. The resulting mixture was then cultured for 20 hours in the presence of 5% CO2 and the supernatant was removed at the end of cultivation to assay IL-1β and TNFα. The test compound was dissolved in dimethyl sulfoxide and diluted by a factor of 100 with FCS to reach 10 times the final concentration (the final concentrations of dimethyl sulfoxide and FCS were 0.1% and 10%, respectively).
(§3) The amount of IL-1β was measured with a commercially available ELISA kit (Cayman), after diluting the supernatant medium by a factor of 15 or 30 with the ELISA buffer. The amount of TNFα was similarly measured by a ELISA kit (Genzyme) after diluting the supernatant by a factor of 2.
(§4) The IC50 was calculated from the regression line determined by the inhibition rates and the concentrations of the test compound.

[2] = test system: Carrageenan-induced Paw Edema in rats; assay: Carrageenan-induced paw edema test; assay type: in vivo, Wistar-Imamichi rats; details: Rattus norvegicus, oral, 3 hours after carrageenan, read-out: Inhibition Rate (%)
Protocol: The same test compounds were subjected to the test as those in the Randall-Selitto test of Experiment 3. Wistar-Imamichi rats (males, 6 week old, body weights: 110-120 g) were used in this test.
The method of Winter, et al. [Proc. Soc. Exp. Biol. Med. 111, 544-547, (1962)] was slightly modified to perform the test [Sankyo Annual Research Report 39, 77-111, (1989)]. The rats were fasted for 16 hours prior to use. Inflammatory edema was induced by the subcutaneous injection of 0.05 ml of a 1% carrageenan (Viscarin 402) solution into the right hind paw of the animal. The test compounds were administered orally 30 minutes before injection of carrageenan. The volume of the right hind foot was measured with a Plethysmometer (Trade mark) (Ugo-Basile Co.) just before administration of the test compound and 3 hours after injection of carrageenan to determine the edema intensity [(right foot volume after 3 hours/right foot volume before injection)-1].

[3] = test system: IL-1β production in human peripheral monocytes; assay: Inhibitory effect on IL-1β production in LPS-stimulated human peripheral monocytes; assay type: cell-based; details: Monocyte, LPS 10 μg/ml, 20 hours
Protocol: as §1, §2, §3, §4

[4] = test system: yeast-inflamed pain in rats; assay: Analgesic effect on yeast-inflamed pain in rats (Randall-Selitto method); assay type: in vivo, Wistar-Imamichi rats; details: Rattus norvegicus, oral, pain threshold 0.5, 1 and 2 hours after administration, read-out: Efficacy Rate (No. of animals in which drug was effective/No. of animals used in test) (converted)
Protocol: The compound was suspended in 0.5%tragacanth and administered orally at a volume of 5 ml/kg. The control group was administered with 0.5% tragacanth only as a vehicle.
Wistar-Imamichi rats (males, 5 week old, body weights: 80-100 g) were used in this test.
The test was conducted in accordance with the method of Winter and Flataker [J. Pharmacol. Exp. Ther. 150, 165-171, (1965)], which is a modification of the original method of Randall and Selitto [Arch. Int. Pharmacodyn. Ther. 111, 405-419, (1957)]. The rats were fasted for 16 hours prior to use. Inflammation was induced by subcutaneous injection of 0.1 ml of a suspension of 20% beer yeast (Sigma) into the right hind footpad of the animal. After 4.5 hours, increasing pressure was applied to the inflamed footpad at a constant speed using an Analgesy meter (Trade mark) (Ugo-Basile Co.).
First the average of pain threshold values at each time point (0.5, 1, and 2 hr) was calculated in a control group. If a pain threshold value exceeded 2 times the control average value at the same time point even once in the drug-treated groups, then the animal was considered to indicate efficacy. Efficacy rates of the drug were estimated by the evaluation method of Blake [J. Pharm. Pharm. 19, 367-373, (1967)].

gastric mucosa = assay: Irritative effect on gastric mucosa; assay type: in vivo, Wistar rats; details: oral; dose producing 50% incidence of gastric ulcers, 3.5 hours after dosing
Protocol: Experiments were performed according to the method described by Jahn and Adrian [Arzneim.-Forsch. 19, 36, (1969)]. Male Wistar rats weighing approximately 120 g were fasted for 16 hours before the experiment. The drugs were administered orally to rats as described in Experiment 3. Three and the half hours after dosing, the animals were killed under ether-anesthesia and the stomachs were placed into 1% of formalin. The stomach was opened by cutting along the greater curvature and the number and length of lesions were counted under a microscope (6.3×10). The ulcerogenicity in each animal was assessed according to Hitchens et. al. [Pharmacologist 9, 242, (1967)]. Incidence was determined as the rate of rats with 4 or more ulcers of more than 0.5 mm length, and UD50's (doses producing 50% incidence) were calculated from the incidence and the dose by probit (=probability unit) method.

[5] = test system: LTB4 production from human peripheral monocytes; assay: Inhibitory effect on LTB4 production from human peripheral monocytes; assay type: cell-based; details: Monocyte, LTB4 in culture supernatant, ELISA
Protocol: The isolation of monocytes was carried out as described in Experiment 2-(1).
The cell culture was carried out as described in Experiment 2-(2).
The supernatant of the culture medium after incubation was subjected to the ELISA assay (Cayman). IC50 values were calculated by the least square method from the regression line determined by the inhibition rates and the doses.

yeast-induced fever = assay: Antipyretic effect on yeast-induced fever; assay type: in vivo, Wistar-Imamichi rats; details: Dose: 0.4 mg/kg, oral; mean of 1 and 2 hours after dosing
Protocol: The method of Roszkowski et al. [J. Pharmacol. Exp. Ther. 179, 114, (1971)] was slightly modified to perform the test. The test compound was administered in the same manner as in Experiment 3. Male Wistar-Imamichi rats (6 week old, body weights: approximately 120 g) were used in the test. Yeast (Brewer's yeast, Sigma) was suspended in physiological saline to a concentration of 25%, finely crushed in an agate mortar, and injected subcutaneously into the backs of the rats under ether-anesthesia at a volume of 2 ml/rat. The rats were fasted after the injection of yeast. On the following day (19 hours after the yeast injection), a catheter-type thermistor thermometer (Japan Koden, MGA III) was inserted approximately 5 cm into the rectum to measure the temperature of the animals. […] Rectal temperatures were measured 1 and 2 hours after administration of the test compound, and fever temperature was calculated by subtracting the normal temperature of healthy animals measured simultaneously. Inhibition rate of the group treated with the compound relative to the control group was calculated by using the mean value at 1 and 2 hours after dosing.

[6] = test system: scald-induced Pain in rats; assay: Scald-induced pain test; assay type: in vivo, Wistar-Imamichi rats; details: oral; pain response time, mean of 1 and 2 hours after dosing
Protocol: The test was conducted in accordance with the method of Iizuka and Tanaka [Jpn. J. Pharmacol. 70, 697, (1967)]. The test compound was administered in the same manner as in Experiment 3. Male Wistar-Imamichi rats (4-5 week old, body weights: approximately 100 g) were used after fasting for 16 hours. The right hind foot of the animal was immersed in hot water at 57° C. for 6 seconds to induce scald under ether-anesthesia. Two hours later, the scald foot of the rat was irritated by immersing in hot water at 40° C. for 5 seconds, and the animal was returned to the cage. […] Lifting up the scalded foot or licking it without coming in contact with the metal cage were considered to be pain responses. Pain response time was determined as the total time of the pain response during the 30-second observation period. […] Pain response time was again measured 1 and 2 hours after dosing and the mean value was determined. Using the mean values, inhibition rates were calculated relative to the control group. ID50 was calculated from the regression line determined by the inhibition rates and the doses.

Compound	inhibition at 10 µM [1]	inhibition in vivo at 50 mg/kg [2]	responders at 12.5 mg/kg [4]	other results
COc1ccc(-n2cccc2-c2ccc(S(C)(=O)=O)cc2)cc1F [Example 54, 1-(3-Fluoro-4-methoxyphenyl)-2-(4-methylsulfonylphenyl)pyrrole]	54.7%	–	–	–
CS(=O)(=O)c1ccc(-c2cc(C(F)F)cn2-c2ccc(F)cc2)cc1 [Example 49, 1-(4-Fluorophenyl)-4-difluoromethyl-2-(4-methylsulfonylphenyl)pyrrole]	40.9%	–	–	–
CS(=O)(=O)c1ccc(-c2ccc(F)n2-c2ccc(F)cc2)cc1 [Example 41, 5-Fluoro-1-(4-fluorophenyl)-2-(4-methylsulfonylphenyl)pyrrole]	–	60%	–	inhibition at 10 µM [3]: 51.2%
COc1ccc(-c2cc(Cc3ccc(OC)c(OC4CCCC4)c3)cn2-c2ccc(S(N)(=O)=O)cc2)cc1 [Example 81, 4-(3-Cyclopentyloxy-4-methoxybenzyl)-2-(4-methoxyphenyl)-1-(4-sulfamoylphenyl)pyrrole]	46.1%	–	–	–
CS(=O)(=O)c1ccc(-c2cccn2-c2ccc(F)cc2F)cc1 [Example 7, 1-(2,4-Difluorophenyl)-2-(4-methylsulfonylphenyl) pyrrole]	–	56%	100%	inhibition at 10 µM [3]: 42.6%
CCCOc1ccc(-c2cc(C)cn2-c2ccc(S(N)(=O)=O)cc2)cc1 [Example 68, 4-Methyl-2-(4-propoxyphenyl)-1-(4-sulfamoylphenyl)pyrrole]	42.6%	–	–	–
Cc1cc(-c2ccc(C)c(C)c2)n(-c2ccc(S(N)(=O)=O)cc2)c1 [Example 78, 4-Methyl-2-(3,4-dimethylphenyl)-1-(4-sulfamoylphenyl)pyrrole]	–	66%	100%	UD50 (gastric mucosa): >100 mg/kg; pIC50 [5]: 6.51
CCOc1ccc(-c2cc(C)cn2-c2ccc(S(N)(=O)=O)cc2)cc1 [Example 67, 2-(4-Ethoxyphenyl)-4-methyl-1-(4-sulfamoylphenyl) pyrrole]	–	64%	100%	Inhibition Rate (%) (yeast-induced fever): 78%; ID50 [6]: 1.6 mg/kg; UD50 (gastric mucosa): >100 mg/kg
CSc1ccc(-n2cc(C)cc2-c2ccc(S(N)(=O)=O)cc2)cc1 [Example 84, 4-Methyl-1-(4-methylthiophenyl)-2-(4-sulfamoylphenyl)pyrrole]	–	66%	100%	Inhibition Rate (%) (yeast-induced fever): 64%; UD50 (gastric mucosa): >100 mg/kg
CS(=O)(=O)c1ccc(-c2ccc(C(F)(F)F)n2-c2ccc(F)cc2)cc1 [Example 44, 5-Trifluoromethyl-1-(4-fluorophenyl)-2-(4-methylsulfonylphenyl)pyrrole]	–	–	–	melting point: 136 to 139 °C
CSc1ccc(-n2c(C)ccc2-c2ccc(S(N)(=O)=O)cc2)cc1 [Example 90, 5-Methyl-1-(4-methylthiophenyl)-2-(4-sulfamoylphenyl)pyrrole]	–	64%	–	inhibition at 10 µM [3]: 62.2%
